# Reference: patent EP4656179A1, “COMPOSITION CONTAINING STREPTOCOCCUS SP. STRAIN FOR PREVENTION, ALLEVIATION, OR TREATMENT OF SKIN DISEASES” (Cosmax, Inc., priority 2023, dated 2024)
# Tests used:
# Assay type in all cases: cell-based, human
# Conditions in all cases: HaCaT cells, IFN-γ 10 ng/mL; 1, 10, and 100 ppm; 24 hours; GAPDH as standard
# CCL17 = experiment: Marker gene expression in IFN-γ atopic dermatitis cell model (HaCaT), real-time PCR: CCL17
# Description: (§1) To verify the effect of the Cyclo(Gly-Pro) of alleviating atopic dermatitis, an in vitro efficacy evaluation was conducted.
# (§2) First, human keratinocytes, HaCaT cells, were purchased from the American Type Culture Collection (ATCC; Manassas, VA, USA) and cultured in DMEM (HyClone, Logan, UT, USA) supplemented with 10 % FBS (HyClone) and 1 % antibiotic-antimycotic solution (Welgene, Daegu, Korea). The cells were maintained at 37 °C in a 5 % CO2 incubator. After isolating the cells using trypsinization, 4 x 10^5 cells were added to each well of a 6-well plate. After 1 day of cell attachment, the culture was replaced with a serum-free medium and treated with IFN-γ (Sigma Aldrich, St. St. Louis, MO, USA) at a concentration of 10 ng/mL to induce an environment similar to atopic dermatitis. As a positive control group, 1 µM dexamethasone (Sigma Aldrich) was used. As experimental groups, the cells were treated with Cyclo(Gly-Pro) (Biosynth Ltd, Berkshire, UK) at concentrations of 1, 10, and 100 ppm. […]
# (§3) The cDNA amplification was performed by 40 cycles of amplification, wherein each cycle has the following conditions: 50 °C for 2 minutes, 95 °C for 10 minutes, 40 cycles of 95°C for 10 seconds, and 60°C for 1 minute. GAPDH was used as an ISTD material, and the mRNA expression levels were expressed as relative values compared to the negative control group. […]
# CCL22 = experiment: Marker gene expression in IFN-γ atopic dermatitis cell model (HaCaT), real-time PCR: CCL22
# Description: as §1, §2, §3
# IL-13 = experiment: Marker gene expression in IFN-γ atopic dermatitis cell model (HaCaT), real-time PCR: IL-13
# Description: as §1, §2, §3
# IL-22 = experiment: Marker gene expression in IFN-γ atopic dermatitis cell model (HaCaT), real-time PCR: IL-22
# Description: as §1, §2, §3
# sIL-2R = experiment: Marker gene expression in IFN-γ atopic dermatitis cell model (HaCaT), real-time PCR: sIL-2R
# Description: as §1, §2, §3
# IL-31 = experiment: Marker gene expression in IFN-γ atopic dermatitis cell model (HaCaT), real-time PCR: IL-31
# Description: as §1, §2, §3
# filaggrin (FLG) = experiment: Marker gene expression in IFN-γ atopic dermatitis cell model (HaCaT), real-time PCR: filaggrin
# Description: as §1, §2, §3
structure (smiles),measurement,setting,value
"O=C1NCC(=O)N2CCCC12 (stereo not shown) [Cyclo(Gly-Pro), hexahydropyrrolo[1,2-a]pyrazine-1,4-dione]",relative expression levels of CCL17,CCL17,decreased
same,relative expression levels of CCL22,CCL22,decreased
same,relative expression levels of IL-13,IL-13,decreased
same,relative expression levels of IL-22,IL-22,decreased
same,relative expression levels of sIL-2R,sIL-2R,decreased
same,relative expression levels of IL-31,IL-31,decreased
same,relative expression levels of filaggrin (FLG),filaggrin (FLG),increased
